# Assay results as given in patent US7179825B2, “Retinoic acid mimetic anilides” (Janssen Pharmaceutica N.V., priority 1997, dated 2007).
# Test system: metabolism of retinoic acid in human breast cancer cells
# Assay: Inhibition of retinoic acid (RA) metabolism (Example C.1)
# Type: cell-based
# Conditions: MCF7; MCF-7 human breast cancer cells, 3H-RA as substrate; concentration needed to reduce the amount of metabolites to 50% of the control
# Excerpt: (§1) The property to delay the metabolism of retinoic acid can be evidenced in various in vitro and in vivo experiments. A particular in vitro procedure is described in example C.1 and tests the inhibitory activity of the compounds of formula (I) on the metabolism of retinoic acid in human breast cancer cells. The compounds of the present invention were also effective in suppressing induced vaginal keratinization effects in ovariectomized rats as is described in example C.2.
# Inhibition of Retinoic Acid (RA) Metabolism
# MCF-7 human breast cancer cells were grown as stock cultures according to art-known protocols. One day before the experiment, RA is added to the stock cultures to stimulate RA-metabolism. At the start of the experiment, cell suspensions were incubated in a tissue culture medium containing ^3H-RA as the substrate. Different concentrations of the test compound (dissolved in 1% DMSO) were added to the incubation mixtures, and at the end of the incubation, the unmetabolized RA is separated from its polar metabolites. The fraction containing the polar ^3H-labelled metabolites was collected and counted in a scintillation counter. For each experiment, a control and a blank incubation were run in parallel. Table 22 list the IC50 value (defined as the concentration in M needed to reduce the amount of metabolites to 50% of the control).
row,IC50 [nM],SMILES
1,9.69,"CC(C)C(c1ccc(NC(N)=S)cc1)n1ccnc1 (racemic) [Compound 699, (±)-4-[1-(1H-imidazol-1-yl)-2-methylpropyl]phenylthiourea]"

# Same assay, conditions: MCF-7 human breast cancer cells, 3H-RA as substrate; concentration needed to reduce the amount of metabolites to 50% of the control
row,IC50 [nM],SMILES
1,0.772,CC(C(c1ccc(NC(=O)Cc2ccc(O)c(Cl)c2)cc1)n1cncn1)N(C)C (mixture of isomers) [Compound 299]
2,2.64,COc1ccc(CC(=O)Nc2ccc(C(C(C)N(C)CCc3ccccc3)n3ccnc3)cc2)cc1OC (mixture of isomers) [Compound 415]
3,0.0365,CCC(CC)C(c1ccc(NC(=O)COc2ccccc2OC)cc1)n1cncn1 (racemic) [Compound 12]
4,0.895,CCC(CC)C(c1ccc(NC(=O)Cc2ccc(OC)nc2)cc1)n1ccnc1 (racemic) [Compound 51]
5,0.0234,CCC(CC)C(c1ccc(NC(=O)Cc2ccc(OC)c(O)c2)cc1)n1ccnc1 (racemic) [Compound 108]
6,0.94,CCC(CC)C(c1ccc(NC(=O)Cc2cc(OC)cc(OC)c2)cc1)n1ccnc1 (racemic) [Compound 119]
7,3.88,CCC(CC)C(c1ccc(NC(=O)Cc2cc(OC)ccc2OCc2ccccc2)cc1)n1ccnc1 (racemic) [Compound 120]
8,0.0397,CCC(CC)C(c1ccc(NC(=O)Cc2cc(C)ccc2O)cc1)n1ccnc1 (racemic) [Compound 124]
9,82.8,Cc1cnc(C(=O)Nc2ccc(C(C(C)C)n3ccnc3)cc2)cn1 (racemic) [Compound 225]
10,16.9,Cc1ccoc1C(=O)Nc1ccc(C(C(C)C)n2ccnc2)cc1 (racemic) [Compound 226]
11,1.84,C/C(=C\c1ccccc1)C(=O)Nc1ccc(C(c2ccc3c(c2)C(C)(C)CCC3(C)C)n2ccnc2)cc1 (racemic) [Compound 491]
12,> 1000,O=C(C=C(c1ccccc1)c1cccnc1)Nc1ccc(C(c2ccc(Cl)cc2)n2ccnc2)cc1 (racemic) [Compound 516]
13,36.9,O=C(C=C(c1ccccc1)c1cccnc1)Nc1ccc(C(c2ccc(F)cc2)n2ccnc2)cc1 (racemic) [Compound 517]
14,151,O=C(/C=C/c1ccccc1)Nc1ccc(C(c2cccc(C(F)(F)F)c2)n2cncn2)cc1 (racemic) [Compound 617]
15,90.8,CC(C)C(c1ccncc1)c1ccc(NC(=O)Cc2ccc(Cl)cc2)cc1 (racemic) [Compound 685]
16,> 100,CC(C)C(c1ccc(NC(=O)Cc2ccc(Cl)cc2)cc1)c1ccccn1 (racemic) [Compound 687]
17,> 100,O=C(Nc1ccc(C(c2ccc(Cl)cc2)n2ccnc2)cc1)Nc1cccc(F)c1 (racemic) [Compound 731]
18,4.35,CCC(c1ccc(NC(=O)Cc2ccc(Cl)cc2)cc1)(C(C)C)n1ccnc1 (racemic) [Compound 755]
19,33,"CC(C)C(c1ccc(NC(=O)Cc2ccc(N)cc2)cc1)n1ccnc1 (single isomer, unassigned) [Compound 147]"
20,2.43,"CC(C)C(c1ccc(NC(=O)Cc2ccc(N=[N+]=[N-])c(I)c2)cc1)n1ccnc1 (single isomer, unassigned) [Compound 260]"
21,3.26,"CC(C(c1ccc(NC(=O)Cc2ccc(O)c(Cl)c2)cc1)n1ccnc1)N(C)C (single isomer, unassigned) [Compound 303]"
22,0.0829,"COc1ccc(CC(=O)Nc2ccc(C(C(C)N(C)C)n3ccnc3)cc2)cc1Cl (single isomer, unassigned) [Compound 305]"
23,1.91,"COc1ccc(CCCC(=O)Nc2ccc(C(C(C)N(C)C)n3ccnc3)cc2)cc1OC (single isomer, unassigned) [Compound 336]"
24,0.829,"CCC(C(c1ccc(NC(=O)Cc2ccc(OC)c(OC)c2)cc1)n1ccnc1)N(C)C (single isomer, unassigned) [Compound 388]"

row,SMILES,IC50 [nM]
1,Cc1cncn1C(c1ccc(Cl)cc1)c1ccc(NC(=O)C=C(c2ccccc2)c2cccc(Cl)c2)cc1 (mixture of isomers) [Compound 693],> 100
2,"CCC(CC)C(c1ccc(NC(=O)C(O)c2ccc(Cl)cc2)cc1)n1cncn1 (racemic) [Compound 17, (±)-A1-4-chloro-N-[4-[2-ethyl-1-(1H-1,2,4-triazol-1-yl)butyl]phenyl]-α-hydroxybenzeneacetamide]",0.999

# Test system: Ovariectomized rats
# Assay: Vaginal keratinization test on ovariectomized rats (Example C.2)
# Type: in vivo
# Conditions: estradiol undecylate induced keratinization, per os once daily on days 1-3, active dose = 50% of rats show complete suppression
# Excerpt: as §1
# “Vaginal Keratinization Test on Ovariectomized Rats”
# Ovariectomized rats were injected subcutaneously with a sesame oil solution containing 100 μg of estradiol undecylate in a volume of 0.1 ml per 100 g body weight and control animals were injected with sesame oil. On day one, two and three, test animals were treated once daily with a per os dose of the test compound and control animals with the drug vehicle (PEG 200). One day after the last treatment, the animals were sacrificed and their vaginas were processed for histological evaluation according to the method described in J. Pharmacol. Exp. Ther. 261(2), 773–779 (1992). A dose at which 50% of the tested rats show complete suppression of the estradiol undecylate induced keratinization effects is defined as an active dose. Table 23 lists the lowest active dose (LAD in mg/kg) of the compounds of formula (I) which were tested.
row,SMILES,LAD (lowest active dose) [mg/kg]
1,"CCCCCC(C)C(c1ccc(NC(=O)/C(C)=C/c2ccccc2)cc1)n1ccnc1 (single isomer, unassigned) [Compound 487]",>5.00
2,"CCCCCC(CC)C(c1ccc(NC(=O)C(C)=Cc2ccccc2)cc1)n1ccnc1 (single isomer, unassigned) [Compound 494]",>2.50
3,"CC(=O)Nc1ccc(C(C(C)N(C)C)n2ccnc2)cc1.O (single isomer, unassigned) [Compound 551]",>2.50
4,"CC(=O)Nc1ccc(C(C(C)N(C)C)n2ccnc2)cc1 (single isomer, unassigned) [Compound 552]",>2.50
5,"CCN(CC)C(C)C(c1ccc(NC(C)=O)cc1)n1ccnc1 (single isomer, unassigned) [Compound 554]",2.50
6,"CCN(CC)C(C)C(c1ccc(NC(C)=O)cc1)n1ccnc1 (single isomer, unassigned) [Compound 555]",>2.50
7,"CCC(C(c1ccc(NC(C)=O)cc1)n1ccnc1)N(C)C (single isomer, unassigned) [Compound 557]",>5.00
8,"CC(=O)Nc1ccc(C(C(C)N(C)C)n2cncn2)cc1 (single isomer, unassigned) [Compound 627]",>2.50
9,"CC(C(c1ccc(NC(=O)Cc2ccc(Cl)cc2)cc1)n1cncn1)N(C)C (single isomer, unassigned) [Compound 628]",>2.50
10,"COc1ccc(CCC(=O)Nc2ccc(C(C(C)N(C)C)n3cncn3)cc2)cc1OC (single isomer, unassigned) [Compound 629]",>2.50
11,"COc1cc(CC(=O)Nc2ccc(C(C(C)N(C)C)n3cncn3)cc2)cc(OC)c1OC (single isomer, unassigned) [Compound 630]",>2.50
12,"C/C(=C\c1ccccc1)C(=O)Nc1ccc(C(C(C)N(C)C)n2cncn2)cc1 (single isomer, unassigned) [Compound 632]",>2.50
13,"CCN(CC)C(C)C(c1ccc(NC(C)=O)cc1)n1cncn1 (single isomer, unassigned) [Compound 647]",>5.00
14,"CC(C(c1ccc(NC(=S)Nc2nc3ccccc3s2)cc1)n1ccnc1)N(C)C (single isomer, unassigned) [Compound 704]",>5.00
15,"COc1ccc(NC(=O)Nc2ccc(C(C(C)N(C)C)n3cncn3)cc2)cc1OC (single isomer, unassigned) [Compound 717]",>2.50
16,"COc1ccc(NC(=O)Nc2ccc(C(C(C)N(C)C)n3cncn3)cc2)cc1OC (single isomer, unassigned) [Compound 720]",>2.50
17,"CC(C(c1ccc(NC(=O)Cc2ccc(Cl)cc2)cc1)n1cncn1)N(C)C (single isomer, unassigned) [Compound 784]",>5.00
18,"CC(C(c1ccc(NC(=O)Cc2ccc(Cl)cc2)cc1)n1cncn1)N(C)C (single isomer, unassigned) [Compound 785]",5.00
19,CCC(CC)C(c1ccc(NC(=O)c2ccccc2)cc1)n1cncn1 (stereo not shown) [Compound 3],>2.50
20,CCC(CC)C(c1ccc(NC(=O)CN(C)C)cc1)n1ccnc1 (stereo not shown) [Compound 55],>2.50
21,CCOc1ccc(CCC(=O)Nc2ccc(C(C(C)N(C)C)n3ccnc3)cc2)cc1 (stereo not shown) [Compound 348],>2.50
22,COc1ccc(CC(=O)Nc2ccc(C(CN(C)C)n3ccnc3)cc2)cc1OC (stereo not shown) [Compound 380],>2.50
23,CCOC(=O)CC(c1ccc(NC(=O)Cc2ccc(OC)c(OC)c2)cc1)n1ccnc1 (stereo not shown) [Compound 395],>5.00
24,COc1ccc(CC(=O)Nc2ccc(C(CCO)n3ccnc3)cc2)cc1OC (stereo not shown) [Compound 403],>5.00
25,CCOC(=O)CC(c1ccc(NC(C)=O)cc1)n1ccnc1 (stereo not shown) [Compound 560],>5.00
26,CCOC(=O)C(C)C(c1ccc(NC(=O)Cc2ccc(Cl)cc2)cc1)n1cncn1 (stereo not shown) [Compound 624],>2.50
27,CCC(C)C(c1ccc(NC(=O)Cc2ccc(Cl)cc2)cc1)n1cncn1 (stereo not shown) [Compound 626],2.50
28,CCC(c1ccc(NC(C)=O)cc1)(C(C)C)n1ccnc1 (stereo not shown) [Compound 754],10.00
